The values that follow come from PMC6934184, “Selective DNA-PKcs inhibition extends the therapeutic index of localized radiotherapy and chemotherapy” (The Journal of Clinical Investigation, 2019).

This assay deals with T1, FGFR3 G697C (Homo sapiens, UniProt P22607, G697C).
T1 construct: purchased Thermo Fisher Scientific (Life Technologies) SelectScreen
Put plainly: SelectScreen LanthaScreen. Conditions: read-out: % displacement. It is filed as binding. The gist of the method:
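NU5455 was profiled across the SelectScreen Broad panel of kinase activity and binding assays. Z'LYTE reactions such as CSF1R ran at apparent Km ATP, while the Adapta CAMK1 assay used ATP listed as 10. Values are given as percent.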
A general note: In TR-FRET formats the signal depends on donor and acceptor labels being close together.

T1 sequence (P22607 23-806 G697C): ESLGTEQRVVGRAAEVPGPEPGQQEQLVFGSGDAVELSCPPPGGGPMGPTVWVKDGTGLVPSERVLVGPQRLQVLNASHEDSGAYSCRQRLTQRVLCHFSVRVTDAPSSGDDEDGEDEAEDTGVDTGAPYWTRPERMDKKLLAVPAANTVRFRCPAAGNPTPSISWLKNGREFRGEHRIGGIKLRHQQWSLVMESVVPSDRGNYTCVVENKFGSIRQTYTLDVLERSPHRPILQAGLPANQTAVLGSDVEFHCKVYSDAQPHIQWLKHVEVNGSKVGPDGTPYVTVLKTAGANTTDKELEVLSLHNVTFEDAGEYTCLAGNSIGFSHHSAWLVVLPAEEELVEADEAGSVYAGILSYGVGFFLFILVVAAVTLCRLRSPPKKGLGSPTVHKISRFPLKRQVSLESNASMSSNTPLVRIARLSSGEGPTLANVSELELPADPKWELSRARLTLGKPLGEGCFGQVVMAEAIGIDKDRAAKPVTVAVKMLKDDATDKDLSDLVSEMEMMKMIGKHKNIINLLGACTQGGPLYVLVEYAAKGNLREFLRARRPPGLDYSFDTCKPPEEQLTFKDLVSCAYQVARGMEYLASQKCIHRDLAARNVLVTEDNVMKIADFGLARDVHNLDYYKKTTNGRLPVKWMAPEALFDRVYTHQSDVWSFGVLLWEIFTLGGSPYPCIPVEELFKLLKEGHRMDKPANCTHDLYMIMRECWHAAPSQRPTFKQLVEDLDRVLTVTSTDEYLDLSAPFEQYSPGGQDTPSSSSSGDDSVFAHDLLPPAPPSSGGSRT

Turning to `CN(C(=O)CN1CCOCC1)c1ccc2sc3c(-c4cccc5c(=O)cc(N6CC7CCC(C6)O7)oc45)cccc3c2c1` [NU5455], the inhibition at 1 µM amounted to 3.1%.
